Laboratory results as given in paper PMC7385124, “The molecular basis of thioalcohol production in human body odour” (Scientific Reports, 2020).

Key:
SaPatB = biological target: T1, SaPatB (Streptococcus anginosus, UniProt A6BMJ3); assay: DTNB thiol release, A412, Michaelis-Menten; format: biochemical; conditions: pH 7.8, 50 mM KPi, 200 mM NaCl, 37 °C, 0.4 mM DTNB
T1 construct: gene lcd; full length; expressed in E. coli MC1061
T1 sequence (A6BMJ3 1-388): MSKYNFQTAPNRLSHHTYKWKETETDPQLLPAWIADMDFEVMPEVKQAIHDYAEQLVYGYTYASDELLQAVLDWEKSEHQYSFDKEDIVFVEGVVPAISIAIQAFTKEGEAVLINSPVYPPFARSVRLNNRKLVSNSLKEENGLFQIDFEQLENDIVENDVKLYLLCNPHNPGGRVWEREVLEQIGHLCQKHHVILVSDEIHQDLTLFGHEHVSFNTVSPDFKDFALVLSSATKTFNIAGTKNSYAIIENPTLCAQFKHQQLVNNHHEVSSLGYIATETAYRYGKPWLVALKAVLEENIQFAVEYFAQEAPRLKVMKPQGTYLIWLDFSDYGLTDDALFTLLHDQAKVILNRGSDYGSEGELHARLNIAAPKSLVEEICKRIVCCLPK

ShPatB [1] = biological target: T2, ShPatB (Staphylococcus hominis, UniProt Z9H0M2I6C5); assay: DTNB thiol release, A412, Michaelis-Menten; format: biochemical; conditions: pH 7.8, 50 mM KPi, 200 mM NaCl, 37 °C, 0.4 mM DTNB
T2 construct: full length; pBADcLIC, expressed in E. coli MC1061; homodimer, PLP on Lys246
T2 sequence (Z9H0M2I6C5 7-404): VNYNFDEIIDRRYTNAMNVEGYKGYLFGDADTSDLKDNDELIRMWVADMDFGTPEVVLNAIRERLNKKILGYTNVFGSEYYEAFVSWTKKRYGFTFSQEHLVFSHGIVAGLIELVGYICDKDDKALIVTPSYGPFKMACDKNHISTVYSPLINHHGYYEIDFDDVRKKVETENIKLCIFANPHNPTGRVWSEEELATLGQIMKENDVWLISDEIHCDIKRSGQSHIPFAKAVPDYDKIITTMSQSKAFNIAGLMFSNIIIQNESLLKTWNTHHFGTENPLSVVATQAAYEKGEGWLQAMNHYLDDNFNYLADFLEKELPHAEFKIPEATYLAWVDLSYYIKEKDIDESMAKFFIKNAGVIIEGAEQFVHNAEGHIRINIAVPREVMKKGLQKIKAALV

EcMalY = biological target: T3, EcMalY (Escherichia coli, UniProt P23256); assay: DTNB thiol release, A412, Michaelis-Menten; format: biochemical; conditions: pH 7.8, 50 mM KPi, 200 mM NaCl, 37 °C, 0.4 mM DTNB
T3 construct: gene malY; full length; N-terminal MGGGFA and C-terminal ENLYFQG-His10; expressed in E. coli MC1061

BsPatB [2] = biological target: T4, BsPatB (Bacillus subtilis, UniProt Q08432); assay: DTNB thiol release, A412, Michaelis-Menten; format: biochemical; conditions: pH 7.8, 50 mM KPi, 200 mM NaCl, 37 °C, 0.4 mM DTNB
T4 construct: gene patB; full length; N-terminal MGGGFA and C-terminal ENLYFQG-His10; expressed in E. coli MC1061; homodimer, PLP on Lys234

ShPatB [3] = biological target: T2, ShPatB; assay: end point DTNB assay, A412; format: biochemical; conditions: 2.5 μM enzyme, 2.5 mM Cys-3M3SH; covalent to PLP, reversed by excess PLP
BsPatB [4] = biological target: T4, BsPatB; assay: X-ray crystallography, […] Å; format: binding; conditions: covalent internal aldimine at Lys234
ShPatB [5] = biological target: T2, ShPatB; assay: X-ray crystallography, […] Å; format: binding; conditions: covalent internal aldimine at Lys246
CjAecD = biological target: T5, CjAecD (Corynebacterium jeikeium, UniProt Q4JWQ6); assay: DTNB thiol release, A412, Michaelis-Menten; format: biochemical; conditions: pH 7.8, 50 mM KPi, 200 mM NaCl, 37 °C, 0.4 mM DTNB
T5 construct: gene aecD; full length; expressed in E. coli MC1061
T5 sequence (Q4JWQ6 1-416): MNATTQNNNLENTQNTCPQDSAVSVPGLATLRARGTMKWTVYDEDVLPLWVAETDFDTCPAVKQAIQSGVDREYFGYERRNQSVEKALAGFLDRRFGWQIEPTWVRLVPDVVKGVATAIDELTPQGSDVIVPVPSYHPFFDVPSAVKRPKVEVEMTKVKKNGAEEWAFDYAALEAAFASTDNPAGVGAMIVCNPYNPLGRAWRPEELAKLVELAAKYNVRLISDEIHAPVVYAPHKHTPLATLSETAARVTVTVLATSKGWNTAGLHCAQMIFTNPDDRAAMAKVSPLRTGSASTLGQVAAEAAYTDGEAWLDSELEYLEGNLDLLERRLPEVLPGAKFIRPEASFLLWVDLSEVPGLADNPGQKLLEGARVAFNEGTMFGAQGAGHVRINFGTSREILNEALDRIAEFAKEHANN

SeMetC = biological target: T6, SeMetC (Staphylococcus epidermidis, UniProt Q5HRU7); assay: DTNB thiol release, A412, Michaelis-Menten; format: biochemical; conditions: pH 7.8, 50 mM KPi, 200 mM NaCl, 37 °C, 0.4 mM DTNB
T6 construct: gene SERP0095; full length; expressed in E. coli MC1061; species of 'Se' not spelt out
T6 sequence (Q5HRU7 1-381): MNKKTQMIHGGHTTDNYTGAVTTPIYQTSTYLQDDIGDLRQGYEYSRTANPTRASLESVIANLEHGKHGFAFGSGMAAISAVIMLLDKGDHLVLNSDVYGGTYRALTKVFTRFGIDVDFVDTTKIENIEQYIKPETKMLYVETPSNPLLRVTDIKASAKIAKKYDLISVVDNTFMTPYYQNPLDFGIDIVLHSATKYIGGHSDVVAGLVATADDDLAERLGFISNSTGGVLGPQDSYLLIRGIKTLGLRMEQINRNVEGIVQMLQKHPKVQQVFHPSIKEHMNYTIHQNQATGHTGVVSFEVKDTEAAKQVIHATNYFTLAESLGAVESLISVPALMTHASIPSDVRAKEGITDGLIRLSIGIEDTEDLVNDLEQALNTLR

ShMetC = biological target: T7, ShMetC (Staphylococcus hominis, UniProt Z9HEU7RWP2); assay: DTNB thiol release, A412, Michaelis-Menten; format: biochemical; conditions: pH 7.8, 50 mM KPi, 200 mM NaCl, 37 °C, 0.4 mM DTNB
T7 construct: full length; expressed in E. coli MC1061; species of 'Sh' not spelt out for MetC (S. haemolyticus possible)

T4 sequence (Q08432 whole entry): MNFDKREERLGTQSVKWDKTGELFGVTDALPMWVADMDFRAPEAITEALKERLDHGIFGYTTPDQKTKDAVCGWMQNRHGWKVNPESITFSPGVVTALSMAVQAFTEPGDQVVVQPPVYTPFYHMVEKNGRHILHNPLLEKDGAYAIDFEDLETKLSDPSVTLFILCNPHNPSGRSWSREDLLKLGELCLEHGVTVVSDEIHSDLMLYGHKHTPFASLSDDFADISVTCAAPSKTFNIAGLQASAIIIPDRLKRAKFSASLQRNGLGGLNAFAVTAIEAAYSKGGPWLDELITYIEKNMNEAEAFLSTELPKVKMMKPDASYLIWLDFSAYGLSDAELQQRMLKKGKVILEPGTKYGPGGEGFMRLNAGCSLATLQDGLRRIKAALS
T3 sequence (P23256 whole entry): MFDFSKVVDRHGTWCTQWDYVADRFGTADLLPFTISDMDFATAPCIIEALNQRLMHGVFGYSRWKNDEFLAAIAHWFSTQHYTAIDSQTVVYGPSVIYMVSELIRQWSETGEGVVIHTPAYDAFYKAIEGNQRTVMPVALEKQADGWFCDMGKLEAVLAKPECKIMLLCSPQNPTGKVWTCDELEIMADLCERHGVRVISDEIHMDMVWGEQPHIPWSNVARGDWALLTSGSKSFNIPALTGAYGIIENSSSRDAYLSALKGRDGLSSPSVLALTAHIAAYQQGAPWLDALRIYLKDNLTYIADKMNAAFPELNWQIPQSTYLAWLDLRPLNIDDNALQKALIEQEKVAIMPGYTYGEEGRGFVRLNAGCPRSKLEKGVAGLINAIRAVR

Compound | KM (SaPatB) | KM (ShPatB [1]) | KM (EcMalY) | KM (BsPatB [2]) | further results
CCCC(C)(CCO)SC[C@H](N)C(=O)O (some centres unmarked) [Cys-3M3SH] | Streptococcus anginosus (SaPatB) did not discriminate between the two ligands | ShPatB exhibits selectivity towards Cys-3M3SH | E. coli MalY (EcMalY) had higher activities against cystathionine | B. subtilis (BsPatB) and Streptococcus anginosus (SaPatB) did not discriminate between the two ligands | –
CC(C)(CCO)SC[C@H](N)C(=O)O [Felinine] | – | We also measured enzyme activity against Felinine, a close structural analog of Cys-3M3SH | – | – | –
N[C@H]1CONC1=O [LCS, L-cycloserine] | – | – | – | – | inhibition (end point) (ShPatB [3]): Cycloserine in vitro inhibition of ShPatB with Cys-3M3SH as the substrate
Cc1ncc(COP(=O)(O)O)c(C=O)c1O [PLP, pyridoxal phosphate] | – | – | – | – | X-ray crystallography, 2.3 Å (BsPatB [4]): each subunit containing a PLP moiety covalently bound to a conserved lysine residue; X-ray crystallography, 1.6 Å (ShPatB [5]): each subunit containing a PLP moiety covalently bound to a conserved lysine residue
N[C@@H](CCSC[C@H](N)C(=O)O)C(=O)O [cystathionine] | Streptococcus anginosus (SaPatB) did not discriminate between the two ligands | – | E. coli MalY (EcMalY) had higher activities against cystathionine | B. subtilis (BsPatB) and Streptococcus anginosus (SaPatB) did not discriminate between the two ligands | KM (CjAecD): CjAecD is selective for cystathionine over Cys-3M3SH; KM (SeMetC): higher activities against cystathionine, similar to the MetC enzymes included (ShMetC and SeMetC); KM (ShMetC): higher activities against cystathionine, similar to the MetC enzymes included (ShMetC and SeMetC)
